# *1 amine or outer side, *2 acyl side, *3 side chain or, on linkers, in order; H or OH if unused. Where a SMILES comes first, the peptide text is derived from it. Bridges are numbered along the chain shown (N, C = ends). [ ]: non-standard residue; d: D form. The star is where a group is joined. hPhe(3-Cl-4-CF3) = N[C@@H](CCc1ccc(C(F)(F)F)c(Cl)c1)C(=O)O; X27 = COCCCN([C@@H](Cc1ccc(C)cc1)C(=O)[*:2])[*:1]; X14 = COCCN([C@@H](Cc1ccc(C)cc1)C(=O)[*:2])[*:1]; NMeGly(cPent) = CN[C@H](C(=O)O)C1CCCC1; NMeD = CN[C@@H](CC(=O)O)C(=O)O; NMeL = CN[C@@H](CC(C)C)C(=O)O; Morpholide = C1CN(*)CCO1; NMeA = CN[C@@H](C)C(=O)O; Ac5c = NC1(C(=O)O)CCCC1; Aze = O=C(O)[C@@H]1CCN1; Sar = CNCC(=O)O
# Legend:
# HRAS wild-type protein = HRAS wild-type protein (Homo sapiens, UniProt P01112); assay: Binding to HRAS by surface plasmon resonance (SPR), KD and KD ratio to KRAS
# Summary of the method: (§1)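 Compound binding is evaluated by SPR single-cycle kinetics, with concentrations added intermittently from low to high for 75 s each. Target surfaces carry GDP-loaded biotinylated Avi-RAS at about 100–300 RU, regenerated after each cycle; temperature 30°C. A 1:1 binding model gives KD.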
# [1] = target: GDP-bound NRAS wild-type protein (Homo sapiens, UniProt P01111); assay: Binding to NRAS by surface plasmon resonance (SPR), KD and KD ratio to KRAS
# Summary of the method: as §1
# [2] = system: human lung cancer strain NCI-H441; assay type: cell-based
# Summary of the method: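 Proliferation was scored by […] measured after the reagent was added to cultures kept at 37°C in 5% carbon dioxide.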
# [3] = ratio of the KD value with respect to HRAS wild-type protein to the KD value with respect to KRAS
# [4] = ratio of the KD value with respect to GDP-bound NRAS wild-type protein to the KD value with respect to KRAS
# [5] = ratio of KD for HRAS wild-type protein to KD for KRAS
# [6] = ratio of KD for GDP-bound NRAS wild-type protein to KD for KRAS
# GDP-bound NRAS wild-type protein, sequence (P01111 whole entry): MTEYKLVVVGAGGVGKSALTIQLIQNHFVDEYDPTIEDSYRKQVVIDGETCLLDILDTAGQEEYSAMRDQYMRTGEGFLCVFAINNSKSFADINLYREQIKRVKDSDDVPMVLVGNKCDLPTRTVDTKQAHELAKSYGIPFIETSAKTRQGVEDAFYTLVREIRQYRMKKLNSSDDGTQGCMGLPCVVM
# HRAS wild-type protein, sequence (P01112 whole entry): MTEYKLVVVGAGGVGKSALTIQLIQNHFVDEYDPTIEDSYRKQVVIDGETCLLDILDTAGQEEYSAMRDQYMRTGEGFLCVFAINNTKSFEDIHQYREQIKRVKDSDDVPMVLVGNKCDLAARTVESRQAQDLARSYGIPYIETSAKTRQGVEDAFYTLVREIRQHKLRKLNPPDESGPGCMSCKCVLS
Compound,IC50 [2] [nM],HRAS /KRAS (HRAS wild-type protein; [3]),"NRAS /KRAS [1, 4]",HRAS /KRAS (HRAS wild-type protein; [5]),"NRAS /KRAS [1, 6]",HRAS /KRAS (HRAS wild-type protein; ratio of KD value for HRAS wild-type protein to KD value for KRAS (SPR)),NRAS /KRAS ([1]; ratio of KD value for GDP-bound NRAS wild-type protein to KD value for KRAS (SPR))
C#CC[C@H]1C(=O)N[C@@H]([C@@H](C)CC)C(=O)N(C)CC(=O)N(C)[C@H]2CCCCN(C2=O)[C@@H](Cc2ccc(C(F)(F)F)cc2)C(=O)N(C)CC(=O)N[C@@H](CCc2cc(F)c(C(F)(F)F)c(F)c2)C(=O)N2C[C@H](OCC)C[C@H]2C(=O)NC2(CCC2)C(=O)N(C)[C@@H](C2CCCC2)C(=O)N(C)[C@H](C(=O)N2CCOCC2)CC(=O)N1C [PP0711],6.5,B (a compound having 3 or more and less than 10 is denoted as B),C (A compound having a KD ratio of 0.1 or more and less than 3 is denoted as C),–,–,–,–
CC[C@H](C)[C@@H]1NC(=O)[C@H](CC(C)C)N(C)C(=O)C[C@@H](C(=O)N2CCOCC2)N(C)C(=O)[C@H](C2CCCC2)N(C)C(=O)C2(CCCC2)NC(=O)[C@@H]2CCCN2C(=O)[C@H](CCc2ccc(C(F)(F)F)c(Cl)c2)NC(=O)CN(C)C(=O)[C@H](Cc2ccc(C)cc2)N(CCOC)C(=O)CN(C)C(=O)CN(C)C1=O [PP0104] ([NMeL]I[Sar][Sar][X14][Sar][hPhe(3-Cl-4-CF3)]P[Ac5c][NMeGly(cPent)][NMeD]-Morpholide; lactam N-11),6.7,–,–,C (A compound having a KD ratio of 0.1 or more and less than 3 is denoted as C),B (a compound having 3 or more and less than 10 is denoted as B),–,–
CCO[C@@H]1C[C@H]2C(=O)NC3(CCC3)C(=O)N(C)[C@@H](C3CCCC3)C(=O)N(C)[C@H](C(=O)N3CCOCC3)CC(=O)N(C)[C@@H](CC(C)C)C(=O)N[C@@H]([C@@H](C)CC)C(=O)N(C)CC(=O)N(C)[C@H]3CCCCCN(C3=O)[C@@H](Cc3ccc4sccc4c3)C(=O)N(C)CC(=O)N[C@@H](CCc3cc(F)c(C(F)(F)F)c(F)c3)C(=O)N2C1 [PP0920],75.5,–,–,B (a compound having 3 or more and less than 10 is denoted as B),B (a compound having 3 or more and less than 10 is denoted as B),–,–
C#CC[C@H]1C(=O)N[C@@H]([C@@H](C)CC)C(=O)N(C)CC(=O)N(C)[C@H]2C/C=C\CCN(C2=O)[C@@H](Cc2ccc(C(F)(F)F)cc2)C(=O)N(C)CC(=O)N[C@@H](CCc2ccc(Cl)c(Cl)c2)C(=O)N2C[C@H](OCC)C[C@H]2C(=O)NC2(CC(C)(C)C2)C(=O)N(C)[C@@H](C2CCCC2)C(=O)N(C)[C@H](C(=O)N(C)CC)CC(=O)N1C [PP2843],17.7,–,–,A (a compound having 10 or more and less than 20 is denoted as A),A (a compound having 10 or more and less than 20 is denoted as A),–,–
CCO[C@@H]1C[C@H]2C(=O)NC3(CCC3)C(=O)N(C)[C@@H](C(CC)CC)C(=O)N(C)[C@H](C(=O)N3CCCC3)CC(=O)N(C)[C@H]3CCCCC/C=C/c4ccc(cc4)C[C@@H](C(=O)N(C)CC(=O)N[C@@H](CCc4ccc(Cl)c(Cl)c4)C(=O)N2C1)N1CC/C=C\C[C@@H](C1=O)N(C)C(=O)CN(C)C(=O)[C@H]([C@@H](C)CC)NC3=O [PP3052],27.6,–,–,A (a compound having 10 or more and less than 20 is denoted as A),AA (a compound having 20 or more is denoted as AA),–,–
CCCN1CC(=O)N(C)[C@H]2C/C=C\CCN(C2=O)[C@@H](Cc2ccc(C)cc2)C(=O)N(C)CC(=O)N[C@@H](CCc2ccc(C(F)(F)F)c(OC)c2)C(=O)N2C[C@H](OCC)C[C@H]2C(=O)NC2(CC(C)(C)C2)C(=O)N(C)[C@@H](C2CCCC2)C(=O)N(C)[C@H](C(=O)N(C)C)CC(=O)N(C)[C@@H](CC)C(=O)N[C@@H]([C@@H](C)CC)C1=O [PP2096],10.7,A (a compound having 10 or more and less than 20 is denoted as A),A (a compound having 10 or more and less than 20 is denoted as A),–,–,–,–

# The remaining compounds from weak to strong by IC50 [2], led by results:
IC50 [2] [nM],Compound,HRAS /KRAS (HRAS wild-type protein; [3]),"NRAS /KRAS [1, 4]",HRAS /KRAS (HRAS wild-type protein; [5]),"NRAS /KRAS [1, 6]",HRAS /KRAS (HRAS wild-type protein; ratio of KD value for HRAS wild-type protein to KD value for KRAS (SPR)),NRAS /KRAS ([1]; ratio of KD value for GDP-bound NRAS wild-type protein to KD value for KRAS (SPR))
311,CC[C@H](C)[C@@H]1NC(=O)[C@H](CC(C)C)N(C)C(=O)C[C@@H](C(=O)N(C)C)N(C)C(=O)[C@H](C2CCCC2)N(C)C(=O)C2(CCCC2)NC(=O)[C@@H]2CCCN2C(=O)[C@H](CCc2cc(F)c(C(F)(F)F)c(F)c2)NC(=O)CN(C)C(=O)[C@H](Cc2ccc(C(F)(F)F)cc2)N2CCCCC[C@@H](C2=O)N(C)C(=O)CN(CC)C1=O [PP0514],B (a compound having 3 or more and less than 10 is denoted as B),B (a compound having 3 or more and less than 10 is denoted as B),–,–,–,–
182,CCO[C@@H]1C[C@H]2C(=O)NC3(CCC3)C(=O)N(C)[C@@H](C3CCCC3)C(=O)N(C)[C@H](C(=O)N3CCOCC3)CC(=O)N(C)[C@@H](Cc3ccc(F)c(F)c3)C(=O)N[C@@H]([C@@H](C)CC)C(=O)N(C)CC(=O)N(C)[C@H]3CCCCCN(C3=O)[C@@H](Cc3ccc(C(F)(F)F)cc3)C(=O)N(C)CC(=O)N[C@@H](CCc3cc(F)c(C(F)(F)F)c(F)c3)C(=O)N2C1 [PP0928],–,–,B (a compound having 3 or more and less than 10 is denoted as B),A (a compound having 10 or more and less than 20 is denoted as A),–,–
43.3,CC[C@H](C)[C@@H]1NC(=O)[C@H](CC(C)C)N(C)C(=O)C[C@@H](C(=O)N2CCOCC2)N(C)C(=O)[C@H](C2CCCC2)N(C)C(=O)C2(CCCC2)NC(=O)[C@@H]2CCCN2C(=O)[C@H](CCc2ccc(C(F)(F)F)c(Cl)c2)NC(=O)CN(C)C(=O)[C@H](Cc2ccc(F)cc2)N2CCCCC[C@@H](C2=O)N(C)C(=O)CN(C)C1=O [PP0612],B (a compound having 3 or more and less than 10 is denoted as B),B (a compound having 3 or more and less than 10 is denoted as B),–,–,–,–
5.1,CCO[C@@H]1C[C@H]2C(=O)NC3(CCC3)C(=O)N(C)[C@@H](C3CCCC3)C(=O)N(C)[C@H](C(=O)N(C)CC)CC(=O)N(C)[C@@H](CC(C)C)C(=O)N[C@@H]([C@@H](C)CC)C(=O)N(C)CC(=O)N(C)[C@H]3C/C=C\CCN(C3=O)[C@@H](Cc3ccc(C(F)(F)F)cc3)C(=O)N(C)CC(=O)N[C@@H](CCc3ccc(C(F)(F)F)c(OC)c3)C(=O)N2C1 [PP2846],–,–,A (a compound having 10 or more and less than 20 is denoted as A),AA (a compound having 20 or more is denoted as AA),–,–
3.8,CCCN(C)C(=O)[C@@H]1CC(=O)N(C)[C@@H](CC(F)F)C(=O)N[C@@H]([C@@H](C)CC)C(=O)N(C)CC(=O)N(C)[C@H]2C/C=C\CCN(C2=O)[C@@H](Cc2ccc(C(F)(F)F)cc2)C(=O)N(C)CC(=O)N[C@@H](CCc2cc(F)c(C(F)(F)F)c(F)c2)C(=O)N2C[C@H](OCC)C[C@H]2C(=O)NC2(CC(F)(F)C2)C(=O)N(C)[C@@H](C2CCCC2)C(=O)N1C [PP1733],–,–,–,–,A (a compound having 10 or more and less than 20 is denoted as A),A (a compound having 10 or more and less than 20 is denoted as A)
2.2,CC[C@H](C)[C@@H]1NC(=O)[C@H](CC(C)C)N(C)C(=O)C[C@@H](C(=O)N2CCOCC2)N(C)C(=O)[C@H](C2CCCC2)N(C)C(=O)C2(CCCC2)NC(=O)[C@@H]2CCCN2C(=O)[C@H](CCc2ccc(C(F)(F)F)c(Cl)c2)NC(=O)CN(C)C(=O)[C@H](Cc2ccc(C)cc2)N(CCCOC)C(=O)[C@@H]2CCN2C(=O)[C@H](C)N(C)C1=O [PP0093] ([NMeL]I[NMeA][Aze][X27][Sar][hPhe(3-Cl-4-CF3)]P[Ac5c][NMeGly(cPent)][NMeD]-Morpholide; lactam N-11),–,–,B (a compound having 3 or more and less than 10 is denoted as B),C (A compound having a KD ratio of 0.1 or more and less than 3 is denoted as C),–,–

# — patent EP4603105A1, “PHARMACEUTICAL COMPOSITION CONTAINING CYCLIC COMPOUND HAVING SELECTIVE KRAS INHIBITORY EFFECT AGAINST HRAS AND NRAS” (CHUGAI SEIYAKU KABUSHIKI KAISHA, priority 2022, dated 2024)
